For the experiment, the target named is T1, GCS (Canis lupus familiaris, UniProt A0A8I3MXG6).
T1 sequence (A0A8I3MXG6 1-394): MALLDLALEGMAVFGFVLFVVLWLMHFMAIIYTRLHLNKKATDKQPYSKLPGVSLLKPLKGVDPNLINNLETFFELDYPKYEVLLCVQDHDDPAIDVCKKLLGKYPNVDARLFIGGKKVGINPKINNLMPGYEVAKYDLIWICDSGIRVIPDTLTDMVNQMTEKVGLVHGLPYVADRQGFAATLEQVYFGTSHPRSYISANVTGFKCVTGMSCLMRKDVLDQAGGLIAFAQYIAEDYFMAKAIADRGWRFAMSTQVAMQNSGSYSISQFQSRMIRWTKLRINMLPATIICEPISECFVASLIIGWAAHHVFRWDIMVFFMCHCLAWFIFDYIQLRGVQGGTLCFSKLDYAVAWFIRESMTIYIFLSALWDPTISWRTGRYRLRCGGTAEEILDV
In words: Assay 1: GCS Enzymatic Assay (MDCK cell lysate, C6-NBD-Ceramide, LC/MS). Format: biochemical, canine. Conditions: Table 2; for IC50: data without asterisk, read-out: IC50 (nM) generated from Assay 1; for % inhibition generated from Assay 1: data marked by *. Put shortly:
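LC/MS/MS measurement of glucosylceramide and NBD-ceramide after a 1 h, 37 °C reaction with 100 μM UDP-glucose and 10 μM C6-NBD-ceramide gave IC50s or percent inhibition.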

Usually IC50 stands for the concentration at which inhibition is half-maximal. For the compound `O=C(N[C@H](CN1CCCC1)[C@H](O)c1ccc(OC2CC2)c(Cl)c1)C(=O)c1cc2ccc(Cl)cc2o1` [Compound 365, N-((1R,2R)-1-(3-chloro-4-cyclopropoxyphenyl)-1-hydroxy-3-(pyrrolidin-1-yl)propan-2-yl)-2-(6-chlorobenzofuran-2-yl)-2-oxoacetamide], the IC50 was less than 50 nM.
Take `O=C(N[C@H](CN1CCCC1)[C@H](O)c1cc(F)c2c(c1)OCCO2)C(=O)c1cc2ccc(Cl)cc2o1` [Compound 366, 2-(6-chlorobenzofuran-2-yl)-N-((1R,2R)-1-(8-fluoro-2,3-dihydrobenzo[b][1,4]dioxin-6-yl)-1-hydroxy-3-(pyrrolidin-1-yl)propan-2-yl)-2-oxoacetamide]: the IC50 is less than 50 nM.
Take `O=C(N[C@H](CN1CCCC1)[C@H](O)c1ccc(OC2CC2)c(Cl)c1)C(=O)c1ccc(N2CCOCC2)cc1` [Compound 368, N-((1R,2R)-1-(3-chloro-4-cyclopropoxyphenyl)-1-hydroxy-3-(pyrrolidin-1-yl)propan-2-yl)-2-(4-morpholinophenyl)-2-oxoacetamide]: the IC50 is less than 50 nM.
On the same count and under the same terms, to `O=C(N[C@H](CN1CCC1)[C@H](O)c1cc(F)c2c(c1)OCCO2)C(=O)c1ccc(N2CCOCC2)cc1` [Compound 369, N-((1R,2R)-3-(azetidin-1-yl)-1-(8-fluoro-2,3-dihydrobenzo[b][1,4]dioxin-6-yl)-1-hydroxypropan-2-yl)-2-(4-morpholinophenyl)-2-oxoacetamide] belongs less than 50 nM; to `O=C(N[C@H](CN1CCCC1)[C@H](O)c1ccc(OC2CC2)c(Cl)c1)C(=O)c1ccc(-c2ccc(C3CC3)cc2)cc1` [Compound 370, N-((1R,2R)-1-(3-chloro-4-cyclopropoxyphenyl)-1-hydroxy-3-(pyrrolidin-1-yl)propan-2-yl)-2-(4′-cyclopropyl-[1,1′-biphenyl]-4-yl)-2-oxoacetamide], less than 50 nM.
Same read-out and setting: to `O=C(N[C@H](CN1CCCC1)[C@H](O)c1cc(F)c2c(c1)OCCO2)C(=O)c1ccc(-c2ccc(C3CC3)cc2)cc1` [Compound 371, 2-(4′-cyclopropyl-[1,1′-biphenyl]-4-yl)-N-((1R,2R)-1-(8-fluoro-2,3-dihydrobenzo[b][1,4]dioxin-6-yl)-1-hydroxy-3-(pyrrolidin-1-yl)propan-2-yl)-2-oxoacetamide] belongs less than 50 nM; to `O=C(N[C@H](CN1CCCC1)[C@H](O)c1ccc(OC2CC2)c(Cl)c1)C(=O)c1ccc(C2CCOCC2)cc1` [Compound 372, N-((1R,2R)-1-(3-chloro-4-cyclopropoxyphenyl)-1-hydroxy-3-(pyrrolidin-1-yl)propan-2-yl)-2-oxo-2-(4-(tetrahydro-2H-pyran-4-yl)phenyl)acetamide], less than 50 nM.
Still for that read-out and setting: then `O=C(N[C@H](CN1CCCC1)[C@H](O)c1cc(F)c2c(c1)OCCO2)C(=O)c1ccc(C2CCOCC2)cc1` [Compound 373, N-((1R,2R)-1-(8-fluoro-2,3-dihydrobenzo[b][1,4]dioxin-6-yl)-1-hydroxy-3-(pyrrolidin-1-yl)propan-2-yl)-2-oxo-2-(4-(tetrahydro-2H-pyran-4-yl)phenyl)acetamide], with less than 50 nM; and `O=C(N[C@H](CN1CCCC1)[C@H](O)c1ccc(OC2CC2)cc1)C(=O)c1ccc(N2CCOCC2)cc1` [Compound 374, N-((1R,2R)-1-(4-cyclopropoxyphenyl)-1-hydroxy-3-(pyrrolidin-1-yl)propan-2-yl)-2-(4-morpholinophenyl)-2-oxoacetamide], with 50 to 5000 nM.
Take `O=C(N[C@H](CN1CCCC1)[C@H](O)c1ccc(OC2CC2)c(Cl)c1)C(=O)c1ccc(N2CCC2)cc1` [Compound 375, 2-(4-(azetidin-1-yl)phenyl)-N-((1R,2R)-1-(3-chloro-4-cyclopropoxyphenyl)-1-hydroxy-3-(pyrrolidin-1-yl)propan-2-yl)-2-oxoacetamide]: the IC50 lay in the range of 50 to 5000 nM.
On the same count and under the same terms, to `O=C(N[C@H](CN1CCCC1)[C@H](O)c1ccc(OC2CC2)c(Cl)c1)C(=O)c1ccc(F)cc1` [Compound 376, N-((1R,2R)-1-(3-chloro-4-cyclopropoxyphenyl)-1-hydroxy-3-(pyrrolidin-1-yl)propan-2-yl)-2-(4-fluorophenyl)-2-oxoacetamide] belongs less than 50 nM; to `O=C(N[C@H](CN1CCCC1)[C@H](O)c1ccc(OC2CC2)c(Cl)c1)C(=O)c1cc2ccccc2s1` [Compound 377, 2-(benzo[b]thiophen-2-yl)-N-((1R,2R)-1-(3-chloro-4-cyclopropoxyphenyl)-1-hydroxy-3-(pyrrolidin-1-yl)propan-2-yl)-2-oxoacetamide], less than 50 nM.
The same measure, in the same setting: to `C#Cc1ccc(C(=O)C(=O)N[C@H](CN2CCCC2)[C@H](O)c2ccc(OC3CC3)c(F)c2)cc1` [Compound 378, N-((1R,2R)-1-(4-cyclopropoxy-3-fluorophenyl)-1-hydroxy-3-(pyrrolidin-1-yl)propan-2-yl)-2-(4-ethynylphenyl)-2-oxoacetamide] belongs less than 50 nM; to `O=C(N[C@H](CN1CCCC1)[C@H](O)c1cc(F)c2c(c1)OCCO2)C(=O)c1ccc(F)cc1` [Compound 379, N-((1R,2R)-1-(8-fluoro-2,3-dihydrobenzo[b][1,4]dioxin-6-yl)-1-hydroxy-3-(pyrrolidin-1-yl)propan-2-yl)-2-(4-fluorophenyl)-2-oxoacetamide], less than 50 nM; to `O=C(N[C@H](CN1CCCC1)[C@H](O)c1ccc(OC2CC2)c(Cl)c1)C(=O)C1CCN(c2ccc(F)cc2)CC1` [Compound 380, N-((1R,2R)-1-(3-chloro-4-cyclopropoxyphenyl)-1-hydroxy-3-(pyrrolidin-1-yl)propan-2-yl)-2-(1-(4-fluorophenyl)piperidin-4-yl)-2-oxoacetamide], 50 to 5000 nM.
On the same count and under the same terms, to `O=C(N[C@H](CN1CCC1)[C@H](O)c1ccc(OC2CC2)c(F)c1)C(=O)c1cc2ccc(Cl)cc2s1` [Compound 381, N-((1R,2R)-3-(azetidin-1-yl)-1-(4-cyclopropoxy-3-fluorophenyl)-1-hydroxypropan-2-yl)-2-(6-chlorobenzo[b]thiophen-2-yl)-2-oxoacetamide] belongs less than 50 nM; to `CN(C(=O)C(=O)c1ccc(-c2ccc(F)cc2)cc1)[C@H](CN1CCCC1)[C@H](O)c1ccc(OC2CC2)c(F)c1` [Compound 382, N-((1R,2R)-1-(4-cyclopropoxy-3-fluorophenyl)-1-hydroxy-3-(pyrrolidin-1-yl)propan-2-yl)-2-(4′-fluoro-[1,1′-biphenyl]-4-yl)-N-methyl-2-oxoacetamide], less than 50 nM; to `CN(C(=O)C(=O)c1cc2ccc(Cl)cc2s1)[C@H](CN1CCCC1)[C@H](O)c1ccc(OC2CC2)c(F)c1` [Compound 383, 2-(6-chlorobenzo[b]thiophen-2-yl)-N-((1R,2R)-1-(4-cyclopropoxy-3-fluorophenyl)-1-hydroxy-3-(pyrrolidin-1-yl)propan-2-yl)-N-methyl-2-oxoacetamide], less than 50 nM.
For the compound `CC(C)n1ncc2cc(-c3ccc(C(=O)C(=O)N[C@H](CN4CCCC4)[C@H](O)c4ccc(OC5CC5)c(Cl)c4)cc3)ccc21` [Example 258, N-((1R,2R)-1-(3-chloro-4-cyclopropoxyphenyl)-1-hydroxy-3-(pyrrolidin-1-yl)propan-2-yl)-2-(4-(1-isopropyl-1H-indazol-5-yl)phenyl)-2-oxoacetamide], the IC50 is less than 50 nM.
The same measure, in the same setting: to `CC(C)n1cc2cc(-c3ccc(C(=O)C(=O)N[C@H](CN4CCCC4)[C@H](O)c4ccc(OC5CC5)c(Cl)c4)cc3)ccc2n1` [Example 259, N-((1R,2R)-1-(3-chloro-4-cyclopropoxyphenyl)-1-hydroxy-3-(pyrrolidin-1-yl)propan-2-yl)-2-(4-(2-isopropyl-2H-indazol-5-yl)phenyl)-2-oxoacetamide] belongs less than 50 nM.
On to `Cn1ncc2ccc(-c3cccc(C(=O)C(=O)N[C@H](CN4CCCC4)[C@H](O)c4ccc(OC5CC5)c(Cl)c4)c3)cc21` [Example 261, N-((1R,2R)-1-(3-chloro-4-cyclopropoxyphenyl)-1-hydroxy-3-(pyrrolidin-1-yl)propan-2-yl)-2-(3-(1-methyl-1H-indazol-6-yl)phenyl)-2-oxoacetamide], for which the “% inhibition generated from Assay 1” value is reported as “A* (the compound had a % inhibition of a percent inhibition of greater than or equal to about 50%)”.
On the same count and under the same terms, then `O=C(N[C@H](CN1CCCC1)[C@H](O)c1ccc(OC2CC2)c(Cl)c1)C(=O)N1CCN(c2ccc(F)cc2)CC1` [Example 262, N-((1R,2R)-1-(3-chloro-4-cyclopropoxyphenyl)-1-hydroxy-3-(pyrrolidin-1-yl)propan-2-yl)-2-(4-(4-fluorophenyl)piperazin-1-yl)-2-oxoacetamide], with “B* (the compound had a % inhibition of greater than or equal to about 3% but less than about 50%)”.
As to `O=C(N[C@H](CN1CCCC1)[C@H](O)c1ccc(OC2CC2)c(Cl)c1)C(=O)c1ccc(-c2ccc3sc(Cl)cc3c2)cc1` [Example 263, N-((1R,2R)-1-(3-chloro-4-cyclopropoxyphenyl)-1-hydroxy-3-(pyrrolidin-1-yl)propan-2-yl)-2-(4-(2-chlorobenzo[b]thiophen-5-yl)phenyl)-2-oxoacetamide], the IC50 was less than 50 nM.
Still for that read-out and setting: to `O=C(N[C@H](CN1CCCC1)[C@H](O)c1ccc(OC2CC2)c(Cl)c1)C(=O)c1ccc(-c2ccc(F)cc2)cn1` [Example 264, N-((1R,2R)-1-(3-chloro-4-cyclopropoxyphenyl)-1-hydroxy-3-(pyrrolidin-1-yl)propan-2-yl)-2-(5-(4-fluorophenyl)pyridin-2-yl)-2-oxoacetamide] belongs less than 50 nM.

These data come from US10227323B2, “Glucosylceramide synthase inhibitors for the treatment of diseases” (BIOMARIN PHARMACEUTICAL INC., priority 2013, dated 2019).
